From patent US20250382344A1, “Soluble GLP1/GIP/NPY2 Receptor Triple Agonists” (Boehringer Ingelheim International GmH, priority 2024, published 2025)
Like-named read-outs stand apart in the source and are kept apart here.

Assays:
[1] = Solubility in 0.1 M phosphate buffer at pH 7; assay type: physicochemical; details: 0.1 M phosphate buffer at pH 7, 10 mg/mL final peptide concentration, shaking 2 hours at room temperature, peptides as TFA-salts; measured sample pH 6.5-7.0
hGIPR = target: T1, hGIPR (Homo sapiens, UniProt P48546); test: hGIPR CreLuc assay in 0.5% and 100% plasma (CHO CRE-luciferase reporter cells); assay type: cell-based
T1 construct: expressed in transfected cells; host or cells: CHO CRE-luciferase reporter cells
T1 sequence (P48546 22-466): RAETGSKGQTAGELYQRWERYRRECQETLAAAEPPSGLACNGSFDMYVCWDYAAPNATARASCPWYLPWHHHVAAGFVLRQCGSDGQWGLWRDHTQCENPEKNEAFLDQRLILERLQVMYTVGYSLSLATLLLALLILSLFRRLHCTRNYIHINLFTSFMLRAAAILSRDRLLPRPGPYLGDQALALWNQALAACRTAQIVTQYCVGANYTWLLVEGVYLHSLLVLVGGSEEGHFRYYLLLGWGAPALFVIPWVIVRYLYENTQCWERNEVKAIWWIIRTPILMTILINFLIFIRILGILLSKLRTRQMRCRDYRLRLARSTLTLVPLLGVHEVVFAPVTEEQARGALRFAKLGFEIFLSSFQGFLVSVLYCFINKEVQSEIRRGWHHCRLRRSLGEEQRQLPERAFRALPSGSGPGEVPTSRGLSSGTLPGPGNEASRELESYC

hNPY2R = target: T2, hNPY2R (Homo sapiens, UniProt P49146); test: hNPY2R CreLuc assay in 0.5% and 100% plasma (HEK-293 CRE-luciferase reporter cells); assay type: cell-based; details: HEK-293 reporter cells
T2 construct: expressed in transfected cells; host or cells: HEK-293 CRE-luciferase reporter cells
T2 sequence (P49146 1-381): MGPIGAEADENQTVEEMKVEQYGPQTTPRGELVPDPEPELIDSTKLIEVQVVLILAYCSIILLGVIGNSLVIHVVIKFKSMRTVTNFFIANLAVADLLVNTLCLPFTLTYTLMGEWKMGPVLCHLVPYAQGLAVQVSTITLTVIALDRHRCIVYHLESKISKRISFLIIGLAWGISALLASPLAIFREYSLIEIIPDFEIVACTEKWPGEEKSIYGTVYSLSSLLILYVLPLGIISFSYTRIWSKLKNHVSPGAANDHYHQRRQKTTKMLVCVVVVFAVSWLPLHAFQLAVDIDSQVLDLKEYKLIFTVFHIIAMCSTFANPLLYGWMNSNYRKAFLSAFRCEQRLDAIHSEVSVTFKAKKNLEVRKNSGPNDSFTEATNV

[2] = 0.5% human plasma, read-out: hGIPR 0.5% hP
[3] = 100% human plasma, read-out: hNPY2R 100% hP
[4] = 0.5% human plasma, read-out: hNPY2R 0.5% hP

With `CC[C@H](C)[C@H](NC(=O)[C@H](CC(C)C)NC(=O)[C@H](Cc1c[nH]cn1)NC(=O)[C@H](CCCNC(=N)N)NC(=O)[C@@H](NC(=O)[C@H](Cc1ccccc1)NC(=O)[C@H](C)NC(=O)C(C)(C)NC(=O)[C@H](CCC(N)=O)NC(=O)[C@H](C)NC(=O)[C@H](CCC(N)=O)NC(=O)[C@H](CCCCN)NC(=O)[C@H](CCC(=O)O)NC(=O)[C@H](CC(C)C)NC(=O)C(C)(C)NC(=O)[C@@H](NC(=O)[C@H](CO)NC(=O)[C@H](Cc1ccc(O)cc1)NC(=O)[C@H](CC(=O)O)NC(=O)[C@H](CO)NC(=O)[C@@H](NC(=O)[C@H](Cc1ccccc1)NC(=O)[C@@H](NC(=O)CNC(=O)[C@H](CCC(=O)O)NC(=O)C(C)(C)NC(=O)[C@@H](N)Cc1ccc(O)cc1)[C@@H](C)O)[C@@H](C)O)[C@@H](C)CC)C(C)C)C(=O)N[C@@H](CC(N)=O)C(=O)N[C@@H](CCCCNC(=O)CCCCCNC(=O)CC[C@H](NC(=O)CC[C@H](NC(=O)CC[C@H](NC(=O)CC[C@H](NC(=O)CC[C@H](NC(=O)CC[C@H](NC(=O)CCCCCCCCCCCCCCCCCCC(=O)O)C(=O)O)C(=O)O)C(=O)O)C(=O)O)C(=O)O)C(=O)O)C(=O)NC(C)(C)C(=O)N[C@H](C(=O)N[C@@H](CCCNC(=N)N)C(=O)N[C@@H](CCC(N)=O)C(=O)N[C@@H](CCCNC(=N)N)C(=O)N[C@@H](Cc1ccc(O)cc1)C(N)=O)[C@@H](C)O` [Compound 157, Y-Aib-E-G-T-F-T-S-D-Y-S-I-Aib-L-E-K-Q-A-Q-Aib-A-F-V-R-H-L-I-N-K(1,3)-Aib-T-R-Q-R-Y-NH2.C20DA-gGlu-gGlu-gGlu-gGlu-gGlu-gGlu-AHX(1,2)] the solubility at 2 h [1] was 5200 µg/mL, the EC50 (hGIPR; [2]) was 0.0002 µM and the EC50 (hNPY2R; [3]) was 0.135 µM.
Work on `CC[C@H](C)[C@H](NC(=O)[C@H](CC(C)C)NC(=O)[C@H](Cc1c[nH]cn1)NC(=O)[C@H](CCCNC(=N)N)NC(=O)[C@@H](NC(=O)[C@H](Cc1ccccc1)NC(=O)[C@H](C)NC(=O)C(C)(C)NC(=O)[C@H](CCC(=O)O)NC(=O)[C@H](C)NC(=O)[C@H](CCC(N)=O)NC(=O)[C@H](CCCCN)NC(=O)[C@H](CCC(=O)O)NC(=O)[C@H](CC(C)C)NC(=O)C(C)(C)NC(=O)[C@@H](NC(=O)[C@H](CO)NC(=O)[C@H](Cc1ccc(O)cc1)NC(=O)[C@H](CC(=O)O)NC(=O)[C@H](CO)NC(=O)[C@@H](NC(=O)[C@H](Cc1ccccc1)NC(=O)[C@@H](NC(=O)CNC(=O)[C@H](CCC(=O)O)NC(=O)C(C)(C)NC(=O)[C@@H](N)Cc1ccc(O)cc1)[C@@H](C)O)[C@@H](C)O)[C@@H](C)CC)C(C)C)C(=O)N[C@@H](CC(N)=O)C(=O)N[C@@H](CCCCNC(=O)[C@@H](N)CCCCNC(=O)CC[C@H](NC(=O)CC[C@H](NC(=O)COCCOCCNC(=O)CC[C@H](NC(=O)CC[C@H](NC(=O)CC[C@H](NC(=O)CCCCCCCCCCCCCCCCCCC(=O)O)C(=O)O)C(=O)O)C(=O)O)C(=O)O)C(=O)O)C(=O)NC(C)(C)C(=O)N[C@H](C(=O)N[C@@H](CCCNC(=N)N)C(=O)N[C@@H](CCC(N)=O)C(=O)N[C@@H](CCCNC(=N)N)C(=O)N[C@@H](Cc1ccc(O)cc1)C(N)=O)[C@@H](C)O` [Compound 162, Y-Aib-E-G-T-F-T-S-D-Y-S-I-Aib-L-E-K-Q-A-E-Aib-A-F-V-R-H-L-I-N-K(1,3)-Aib-T-R-Q-R-Y-NH2.C20DA-gGlu-gGlu-gGlu-OEG-gGlu-gGlu-eLys(1,2)] yielded a solubility at 2 h [1] of 8700 µg/mL, an EC50 (hGIPR; [2]) of 0.0007 µM and an EC50 (hNPY2R; [3]) of 0.0438 µM.
For `CC[C@H](C)[C@H](NC(=O)[C@H](CO)NC(=O)[C@H](Cc1ccc(O)cc1)NC(=O)[C@H](CC(=O)O)NC(=O)[C@H](CO)NC(=O)[C@@H](NC(=O)[C@H](Cc1ccccc1)NC(=O)[C@@H](NC(=O)CNC(=O)[C@H](CCC(=O)O)NC(=O)C(C)(C)NC(=O)[C@@H](N)Cc1ccc(O)cc1)[C@@H](C)O)[C@@H](C)O)C(=O)NC(C)(C)C(=O)N[C@@H](CC(C)C)C(=O)N[C@@H](CCC(=O)O)C(=O)N[C@@H](CCCCN)C(=O)N[C@@H](CCC(N)=O)C(=O)N[C@@H](C)C(=O)N[C@@H](CCC(N)=O)C(=O)NC(C)(C)C(=O)N[C@@H](C)C(=O)N[C@@H](Cc1ccccc1)C(=O)N[C@H](C(=O)N[C@@H](CCCNC(=N)N)C(=O)N[C@@H](Cc1c[nH]cn1)C(=O)N[C@@H](CC(C)C)C(=O)N[C@@H](CC(C)C)C(=O)N[C@@H](CC(N)=O)C(=O)N[C@@H](CCCCNC(=O)[C@@H](N)CCCCNC(=O)CC[C@H](NC(=O)CC[C@H](NC(=O)CC[C@H](NC(=O)CC[C@H](NC(=O)CC[C@H](NC(=O)CC[C@H](NC(=O)CCCCCCCCCCCCCCCCC(=O)O)C(=O)O)C(=O)O)C(=O)O)C(=O)O)C(=O)O)C(=O)O)C(=O)NC(C)(C)C(=O)N[C@H](C(=O)N[C@@H](CCCNC(=N)N)C(=O)N[C@@H](CCC(N)=O)C(=O)N[C@@H](CCCNC(=N)N)C(=O)N[C@@H](Cc1ccc(O)cc1)C(N)=O)[C@@H](C)O)C(C)C` [Compound 107, Y-Aib-E-G-T-F-T-S-D-Y-S-I-Aib-L-E-K-Q-A-Q-Aib-A-F-V-R-H-L-L-N-K(1,3)-Aib-T-R-Q-R-Y-NH2.C18DA-gGlu-gGlu-gGlu-gGlu-gGlu-gGlu-eLys(1,2)], the solubility at 2 h [1] was 3900 µg/mL, the EC50 (hGIPR; [2]) was 0.0007 µM and the EC50 (hNPY2R; [4]) was 0.0133 µM. The EC50 (hNPY2R; [3]) was 0.0203 µM.
`CC[C@H](C)[C@H](NC(=O)[C@H](CC(C)C)NC(=O)[C@H](Cc1c[nH]cn1)NC(=O)[C@H](CCCNC(=N)N)NC(=O)[C@@H](NC(=O)[C@H](Cc1ccccc1)NC(=O)[C@H](C)NC(=O)C(C)(C)NC(=O)[C@H](CCC(N)=O)NC(=O)[C@H](C)NC(=O)[C@H](CCC(N)=O)NC(=O)[C@H](CCCCN)NC(=O)[C@H](CCC(=O)O)NC(=O)[C@H](CC(C)C)NC(=O)C(C)(C)NC(=O)[C@@H](NC(=O)[C@H](CO)NC(=O)[C@H](Cc1ccc(O)cc1)NC(=O)[C@H](CC(=O)O)NC(=O)[C@H](CO)NC(=O)[C@@H](NC(=O)[C@H](Cc1ccccc1)NC(=O)[C@@H](NC(=O)CNC(=O)[C@H](CCC(=O)O)NC(=O)C(C)(C)NC(=O)[C@@H](N)Cc1ccc(O)cc1)[C@@H](C)O)[C@@H](C)O)[C@@H](C)CC)C(C)C)C(=O)N[C@@H](CC(N)=O)C(=O)N[C@@H](CCCCNC(=O)COCCOCCNC(=O)CC[C@H](NC(=O)CC[C@H](NC(=O)CC[C@H](NC(=O)CC[C@H](NC(=O)CC[C@H](NC(=O)CCCCCCCCCCCCCCCCC(=O)O)C(=O)O)C(=O)O)C(=O)O)C(=O)O)C(=O)O)C(=O)NC(C)(C)C(=O)N[C@H](C(=O)N[C@@H](CCCNC(=N)N)C(=O)N[C@@H](CCC(N)=O)C(=O)N[C@@H](CCCNC(=N)N)C(=O)N[C@@H](Cc1ccc(O)cc1)C(N)=O)[C@@H](C)O` [Compound 140, Y-Aib-E-G-T-F-T-S-D-Y-S-I-Aib-L-E-K-Q-A-Q-Aib-A-F-V-R-H-L-I-N-K(1,3)-Aib-T-R-Q-R-Y-NH2.C18DA-gGlu-gGlu-gGlu-gGlu-gGlu-OEG(1,2)] showed a solubility at 2 h [1] of 4900 µg/mL, an EC50 (hGIPR; [2]) of 0.0002 µM and an EC50 (hGIPR; 100% human plasma, read-out: hGIPR 100% hP) of 0.008 µM. For the same compound, the EC50 (hNPY2R; [3]) was 0.141 µM.
For `CC[C@H](C)[C@H](NC(=O)[C@H](CO)NC(=O)[C@H](Cc1ccc(O)cc1)NC(=O)[C@H](CC(=O)O)NC(=O)[C@H](CO)NC(=O)[C@@H](NC(=O)[C@H](Cc1ccccc1)NC(=O)[C@@H](NC(=O)CNC(=O)[C@H](CCC(=O)O)NC(=O)C(C)(C)NC(=O)[C@@H](N)Cc1ccc(O)cc1)[C@@H](C)O)[C@@H](C)O)C(=O)N[C@@H](C)C(=O)N[C@@H](CC(C)C)C(=O)N[C@@H](CCC(=O)O)C(=O)N[C@@H](CCCCN)C(=O)N[C@@H](CCC(N)=O)C(=O)N[C@@H](C)C(=O)N[C@@H](CCC(N)=O)C(=O)NC(C)(C)C(=O)N[C@@H](C)C(=O)N[C@@H](Cc1ccccc1)C(=O)N[C@H](C(=O)N[C@@H](CCCNC(=N)N)C(=O)N[C@@H](Cc1c[nH]cn1)C(=O)N[C@@H](CC(C)C)C(=O)N[C@H](C(=O)N[C@@H](CC(N)=O)C(=O)N[C@@H](CCCCNC(=O)CC[C@H](NC(=O)CC[C@H](NC(=O)CC[C@H](NC(=O)CC[C@H](NC(=O)CC[C@H](NC(=O)CC[C@H](NC(=O)CCCCCCCCCCCCCCCCCCC(=O)O)C(=O)O)C(=O)O)C(=O)O)C(=O)O)C(=O)O)C(=O)O)C(=O)NC(C)(C)C(=O)N[C@H](C(=O)N[C@@H](CCCNC(=N)N)C(=O)N[C@@H](CCC(N)=O)C(=O)N[C@@H](CCCNC(=N)N)C(=O)N[C@@H](Cc1ccc(O)cc1)C(N)=O)[C@@H](C)O)[C@@H](C)CC)C(C)C` [Compound 29, Y-Aib-E-G-T-F-T-S-D-Y-S-I-A-L-E-K-Q-A-Q-Aib-A-F-V-R-H-L-I-N-K(1,3)-Aib-T-R-Q-R-Y-NH2.C20DA-gGlu-gGlu-gGlu-gGlu-gGlu-gGlu(1,2)], the solubility at 2 h [1] was 10000 µg/mL, the EC50 (hGIPR; [2]) was 0.0008 µM and the EC50 (hNPY2R; [4]) was 0.0413 µM.
